According to publication PMC6286779, “HLA-A2-Restricted Epitopes Identified from MTA1 Could Elicit Antigen-Specific Cytotoxic T Lymphocyte Response” (Journal of Immunology Research, 2018):

Key:
[1] = test system: MDA-MB-231 (HLA-A2+, MTA1+); assay: LDH cytotoxicity assay, CTLs induced in vitro; assay type: cell-based, human; conditions: CTLs induced by peptide 10 μg/ml from donor no. 6; E/T 50 : 1; LDH release, 4 h; n = 3
Method: (§1) CTL induction in vitro was conducted according to the procedures previously described. Briefly, PBMCs from eight HLA-A^∗02^+ healthy donors were isolated using Ficoll-Paque density gradient centrifugation and resuspended in RPMI 1640 medium supplemented with 10% FBS. Then, PBMCs were stimulated three times (once a week) with the indicated peptides (10 μg/ml) or protein MTA1(1–283) (at final concentrations of 0, 1, 10, 30, and 50 μg/ml) for 21 days. Human recombinant cytokine interleukin-2 (IL-2) (50 U/ml) was added on day 3 and 1 day after each stimulation. The cytotoxic assay (lactate dehydrogenase (LDH) assay) and IFN-γ secretion enzyme-linked immunospot (ELISPOT) assay were performed on day 21.
(§2) Cytotoxic activity of induced T cells was tested based on the quantitation of LDH release using the nonradioactive cytotoxicity assay kit (Promega, USA) at the gradient E/T ratio [29, 31]. Target cells which expressed different levels of MTA1 or peptide-pulsed T2 cells were used as target cells. The anti-human HLA-A2 antibody (BB7.2) was added 30 min before adding effector cells to determine the HLA restriction. Target cells (5 × 10^3/well) were cocultured with the effector cells at 37°C for 4 h. The percentage of specific lysis of the target cells was determined using the equation: percentage of specific lysis = [(experimental release − effector spontaneous release − target spontaneous release)/(target maximum release − target spontaneous release)] × 100.

HT-29 (HLA-A2−, MTA1+) = assay: LDH cytotoxicity assay, CTLs induced in vitro; assay type: cell-based, human; conditions: peptide-induced CTLs, HLA-A2-negative control target
Method: as §1, §2

MCF-7 (HLA-A2+, MTA1+) = assay: LDH cytotoxicity assay, CTLs induced in vitro; assay type: cell-based, human; conditions: peptide-induced CTLs from healthy donors, E/T 50 : 1
Method: as §1, §2

SW620 (HLA-A2+, MTA1+) = assay: LDH cytotoxicity assay, CTLs induced in vitro; assay type: cell-based, human; conditions: CTLs induced by peptide 10 μg/ml from donor no. 6; E/T 50 : 1; LDH release, 4 h; n = 3
Method: as §1, §2

HLA-A*0201 molecules = HLA-A*0201 molecules (Homo sapiens, UniProt P04439, D140Y/D185E/D98H/E176V/E277Q/G131W/G231S/I119V/I121R/I166T/I218V/L300P/L318F/N151K/N90K/P208A/P217A/Q86G/Q94H/R138H/R169H/T345S); assay: T2 binding assay; conditions: T2 cells 1 × 10^6 cells/ml, peptide 50 μg/ml, 3 μg/ml β2-M, serum-free RPMI 1640, 18 h, 37°C; BB7.2 staining, flow cytometry; FI > 1.5 = high affinity
Method: The binding affinity of these peptides to HLA-A^∗0201 was evaluated according to our previous study. Briefly, T2 cells (1 × 10^6 cells/ml) were incubated with each peptide (50 μg/ml) and 3 μg/ml human β2-microglobulin (β2-M, Merck, Germany) in serum-free RPMI 1640 medium for 18 h at 37°C in a humidified atmosphere of 5% CO2. Then cells were washed twice and incubated with the anti-human HLA-A2 PE-Cyanine7 mAb, BB7.2 (eBioscience, USA) for 0.5 h at 4°C. Finally, cells were collected, washed, and analyzed using flow cytometry (FACSCalibur, Becton Dickinson, USA). The fluorescence index (FI) calculation was performed as follows: FI = [(mean fluorescence intensity (MFI) of the given peptide − background) − (MFI of the PBS control group − background)]/[(MFI of the PBS control group − background)]. The MFI value of cells untreated with peptides and antibodies was employed as background. Peptides with an FI factor of more than 1.5 were classed as high-affinity candidates.

[2] = test system: SW620 cells (HLA-A2+, MTA1+); assay: LDH cytotoxicity assay, CTLs induced in HLA-A2.1/Kb transgenic mice; assay type: in vivo, human; conditions: HLA-A2.1/Kb transgenic mice, 100 μg peptide + 140 μg T helper epitope in IFA s.c. days 0, 5, 10; splenocytes restimulated 6 days; E/T 50 : 1; n = 5
Method: In vivo induction of peptide-specific CTLs was performed as previously described. Briefly, peptide (100 μg) and the IA^b-restricted HBV-core128 T helper epitope (140 μg) emulsified in incomplete Freund's adjuvant (IFA) were used to subcutaneously immunize at the base of the tail of HLA-A2.1/K^b transgenic mice three times on days 0, 5, and 10. On day 11, all mice were sacrificed through cervical dislocation. Spleen lymphocytes were isolated and restimulated once with 10 μg/ml peptide and 10 U/ml mIL-2 in vitro for an additional 6 days. LDH and IFN-γ ELISPOT assays were performed on day 6 after in vitro stimulation. […]
To test the effects of protein, each HLA-A2.1/K^b transgenic mouse was injected subcutaneously at the base of the tail with 100 μg MTA1(1–283) or the same volume of PBS emulsified in IFA twice on days 0 and 7. On day 14, spleen lymphocytes were harvested and stimulated by peptide pool (10 μg/ml) in vitro for another 6 days. LDH, IFN-γ ELISPOT, and IFN-γ intracellular cytokine staining assays were performed on day 6 after the in vitro stimulation. E/T ratios used in the LDH assay were 12.5 : 1, 25 : 1, and 50 : 1.
as §2

[3] = test system: SW620 incubated with an anti-human HLA-A2 antibody; assay: LDH cytotoxicity assay, CTLs induced in vitro, HLA-A2 blocked; assay type: cell-based; conditions: peptide-induced CTLs, BB7.2 added 30 min before effectors
Method: as §1, §2

[4] = test system: HLA-A2.1/K^b transgenic mice; assay: IFN-γ ELISPOT of CTLs induced in HLA-A2.1/Kb transgenic mice; assay type: in vivo; conditions: HLA-A2.1/Kb transgenic mice immunized with peptide; stimulators peptide-pulsed T2 cells
Method: In vivo induction of peptide-specific CTLs was performed as previously described. Briefly, peptide (100 μg) and the IA^b-restricted HBV-core128 T helper epitope (140 μg) emulsified in incomplete Freund's adjuvant (IFA) were used to subcutaneously immunize at the base of the tail of HLA-A2.1/K^b transgenic mice three times on days 0, 5, and 10. On day 11, all mice were sacrificed through cervical dislocation. Spleen lymphocytes were isolated and restimulated once with 10 μg/ml peptide and 10 U/ml mIL-2 in vitro for an additional 6 days. LDH and IFN-γ ELISPOT assays were performed on day 6 after in vitro stimulation. E/T ratios used in the LDH assay were 20 : 1, 40 : 1, and 80 : 1.
The ELISPOT assay was performed using a commercial kit (Dakewe, China) according to the procedures previously described. Briefly, T2 cells incubated with/without candidate peptide (50 μg/ml) were used as the stimulating cells, effector cells (1 × 10^5) and stimulator cells (peptide-pulsed T2 cells or T2 cells only, 1 × 10^5) were seeded into the 96-well plate precoated with an anti-human (or anti-mouse) IFN-γ antibody. After incubation at 37°C for 18 h, cells were removed, and plates were processed for analysis as instructed. The spot number was determined automatically using a computer-assisted spot analyzer (Dakewe, China).

Sequence: TLLNETESL [Peptide P129]
- lysis rate of MDA-MB-231 cells [1]: 14.1%
- lysis of HT-29 cells (HT-29 (HLA-A2−, MTA1+)): did not lyse
- rate of MCF-7 cell lysis (MCF-7 (HLA-A2+, MTA1+)): 9.34%
- lysis rate of SW620 cells (SW620 (HLA-A2+, MTA1+)): 38.4%
- FI (fluorescence index) (HLA-A*0201 molecules): 1.28
- lysis rate of SW620 cells, CTLs induced in vivo [2]: 51.81%
- lysis of SW620 cells incubated with an HLA-A2 blocking antibody [3]: did not lyse
- IFN-γ production, ELISPOT, CTLs induced in vivo [4]: greater production of IFN-γ compared with the other peptides

Sequence: YLIRRIEEL [Peptide P22]
- lysis rate of MDA-MB-231 cells [1]: 24.8%
- lysis of HT-29 cells (HT-29 (HLA-A2−, MTA1+)): did not lyse
- rate of MCF-7 cell lysis (MCF-7 (HLA-A2+, MTA1+)): 16.0%
- lysis rate of SW620 cells (SW620 (HLA-A2+, MTA1+)): 71.4%
- FI (fluorescence index) (HLA-A*0201 molecules): 2.08
- lysis rate of SW620 cells, CTLs induced in vivo [2]: 37.29%
- lysis of SW620 cells incubated with an HLA-A2 blocking antibody [3]: did not lyse
- IFN-γ production, ELISPOT, CTLs induced in vivo [4]: greater production of IFN-γ compared with the other peptides
